This note sets out measurements from US11279735B2, “Cyclic peptide antibiotics” (priority 2017, dated 2022).

Values after ≈ are worked out from the molar mass of the structure shown. *1 amine or outer side, *2 acyl side, *3 side chain or, on linkers, in order; H or OH if unused. Where a SMILES comes first, the peptide text is derived from it. [ ]: non-standard residue; d: D form. The star is where a group is joined. X6 = CCCCCC[C@@H](OC[C@@H](CC)N[*:1])[C@@H](C)C(=O)[*:2]; X2 = CCCCCC[C@@H](OC[C@@H](C)N[*:1])[C@@H](C)C(=O)[*:2]; X9 = CCCCCC(C)[C@@H](OC[C@@H](C)N[*:1])C(C)C(=O)[*:2]; Gly(cHept) = N[C@H](C(=O)O)C1CCCCCC1; aThr = C[C@H](O)[C@H](N)C(=O)O; NMeL = CN[C@@H](CC(C)C)C(=O)O; Chg = N[C@H](C(=O)O)C1CCCCC1; NMeNva = CCC[C@H](NC)C(=O)O; Dap = NC[C@H](N)C(=O)O; Ethyl(2-NH2) = NCC*; X10 = NCCCC*

The test system of this assay is Escherichia coli (E. coli) strain CFT073 ATCC 700928. Format: cell-based. As to conditions: ATCC 700928, 22 h. In outline:
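MICs were read after 22 h at 35 °C, with bacteria added to a final OD600 of 0.0005. Compounds were serially diluted 2-fold over ten concentrations from a top of 64, 4, 0.5 or 0.13 μg/mL (protocols 1–4). Medium was cation-adjusted Mueller Hinton II broth plus 0.002% Tween-80, following CLSI M07-A8.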
By MIC is commonly meant the smallest concentration in the dilution series that meets the test's criterion for growth inhibition. Higher therefore signals a need for much substance. On to `CCCCCC(C)[C@H]1OC[C@@H](C)NC(=O)[C@H]([C@H](C)O)NC(=O)[C@H](CN)NC(=O)[C@H](C2CCCCC2)NC(=O)[C@H](CC(C)C)N(C)C(=O)C1C` (stereo partly drawn) [Example 153, (3R,6S,9S,12S,15S,18R,19R)-9-(Aminomethyl)-12-cyclohexyl-19-(heptan-2-yl)-6-((S)-1-hydroxyethyl)-15-isobutyl-3,16,18-trimethyl-1-oxa-4,7,10,13,16-pentaazacyclononadecane-5,8,11,14,17-pentaone] (cyclo([Chg][Dap][aThr][X9][NMeL])), for which the MIC is 1.6 µM (≈ 1.11 µg/mL).
The compound `CCCCCC[C@H]1OC[C@@H](C)NC(=O)[C@H](COCCCCN)NC(=O)[C@H](CN)NC(=O)[C@H](C2CCCCCC2)NC(=O)[C@H](CCC)N(C)C(=O)[C@@H]1C` [Example 152, (3R,6S,9S,12S,15S,18R,19R)-6-((4-Aminobutoxy)methyl)-9-(aminomethyl)-12-cycloheptyl-19-hexyl-3,16,18-trimethyl-15-propyl-1-oxa-4,7,10,13,16-pentaazacyclononadecane-5,8,11,14,17-pentaone] (cyclo([Dap]S(X10)[X2][NMeNva][Gly(cHept)])) displayed an MIC of 6.3 µM (≈ 4.65 µg/mL).
For `CCCCCC[C@H]1OC[C@@H](C)NC(=O)[C@H]([C@H](C)O)NC(=O)[C@H](CN)NC(=O)[C@H](C2CCCCC2)NC(=O)[C@H](CCC)N(C)C(=O)[C@@H]1C` [Example 127, (3R,6S,9S,12S,15S,18R,19R)-9-(aminomethyl)-12-cyclohexyl-19-hexyl-3,16,18-trimethyl-15-propyl-6-[(1S)-1-hydroxyethyl]-1-oxa-4,7,10,13,16-pentazacyclononadecane-5,8,11,14,17-pentone] (cyclo([Chg][Dap][aThr][X2][NMeNva])) the value was 4.4 µM (≈ 2.93 µg/mL); for `CCCCCC[C@H]1OC(=O)CNC(=O)[C@H]([C@H](C)O)NC(=O)[C@H](CN)NC(=O)C(C2CC3CCC2C3)NC(=O)[C@H](CCC)N(C)C(=O)[C@@H]1C` (single isomer, unassigned) [Example 69], 8.8 µM (≈ 5.97 µg/mL); for `CCC[C@H]1C(=O)N[C@@H](C2CCCCCC2)C(=O)N[C@@H](CN)C(=O)N[C@@H]([C@H](C)O)C(=O)NCC(=O)O[C@H](CC2CC3CCC2CC3)[C@@H](C)C(=O)N1C` (stereo partly drawn) [Example 79, (6S,9S,12S,15S,18R,19R)-9-(Aminomethyl)-19-(bicyclo[2.2.2]octan-2-ylmethyl)-12-cycloheptyl-6-((S)-1-hydroxyethyl)-16,18-dimethyl-15-propyl-1-oxa-4,7,10,13,16-pentaazacyclononadecane-2,5,8,11,14,17-hexaone], 0.78 µM (≈ 0.561 µg/mL).
For `CCCCCC[C@H]1OC(=O)CNC(=O)[C@H](CO)NC(=O)[C@H](CN)NC(=O)[C@H]([C@H](C)CC)NC(=O)[C@H](CC(C)C)N(C)C(=O)[C@@H]1C` [Example 11, (6S,9S,12S,15S,18R,19R)-9-(aminomethyl)-19-hexyl-6-(hydroxymethyl)-15-isobutyl-16,18-dimethyl-12-[(1R)-1-methylpropyl]-1-oxa-4,7,10,13,16-pentazacyclononadecane-2,5,8,11,14,17-hexone] the value was 25 µM (≈ 16 µg/mL); for `CCCCCC[C@H]1OC[C@@H](CC)NC(=O)[C@H]([C@H](C)O)NC(=O)[C@H](CN)NC(=O)[C@H](C2CCCCC2)NC(=O)[C@H](CC(C)C)N(C)C(=O)[C@@H]1C` [Example 144, (3R,6S,9S,12S,15S,18R,19R)-9-(aminomethyl)-12-cyclohexyl-3-ethyl-19-hexyl-15-isobutyl-16,18-dimethyl-6-[(1S)-1-hydroxyethyl]-1-oxa-4,7,10,13,16-pentazacyclononadecane-5,8,11,14,17-pentone] (cyclo([Chg][Dap][aThr][X6][NMeL])), 2.2 µM (≈ 1.53 µg/mL).
As for `CCCCCC[C@H]1OC(=O)CNC(=O)[C@H]([C@H](C)O)NC(=O)[C@H](CO)NC(=O)[C@H](C2CCCCC2)NC(=O)[C@H](CCC)N(C)C(=O)[C@@H]1C` [Example 132, (6S,9S,12S,15S,18R,19R)-12-cyclohexyl-19-hexyl-9-(hydroxymethyl)-16,18-dimethyl-15-propyl-6-[(1S)-1-hydroxyethyl]-1-oxa-4,7,10,13,16-pentazacyclononadecane-2,5,8,11,14,17-hexone], the MIC came to 6.1 µM (≈ 4.07 µg/mL).
For `CCCCCC[C@H]1OC(=O)CNC(=O)[C@H]([C@H](C)O)NC(=O)[C@H](CN)NC(=O)[C@H](C2CCCCC2)NC(=O)[C@H](CC(C)C)N(C)C(=O)[C@@H]1Cc1ccc(C(F)(F)F)cc1` [Example 121, (6S,9S,12S,15S,18R,19R)-9-(aminomethyl)-12-cyclohexyl-19-hexyl-15-isobutyl-16-methyl-6-[(1S)-1-hydroxyethyl]-18-[[4-(trifluoromethyl)phenyl]methyl]-1-oxa-4,7,10,13,16-pentazacyclononadecane-2,5,8,11,14,17-hexone] the value was 6.3 µM (≈ 5.2 µg/mL); for `CCCCCC[C@H]1OC[C@@H](C)NC(=O)[C@H](COCCN)NC(=O)[C@H](CN)NC(=O)[C@H](C2CCCCC2)NC(=O)[C@H](CC(C)C)N(C)C(=O)[C@@H]1C` [Example 138, (3R,6S,9S,12S,15S,18R,19R)-6-(2-aminoethoxymethyl)-9-(aminomethyl)-12-cyclohexyl-19-hexyl-15-isobutx1-3,16,18-trimethyl-1-oxa-4,7,10,13,16-pentazacyclononadecane-5,8,11,14,17-pentone] (cyclo([Chg][Dap]S(Ethyl(2-NH2))[X2][NMeL])), 12 µM (≈ 8.52 µg/mL); for `CCCC(CCC)C[C@H]1OC(=O)CNC(=O)[C@H]([C@H](C)O)NC(=O)[C@H](CO)NC(=O)[C@H]([C@H](C)CC)NC(=O)[C@H](CC(C)C)N(C)C(=O)[C@@H]1C` [Example 42, (6S,9S,12S,15S,18R,19R)-6-[(1S)-1-hydroxyethyl]-9-(hydroxymethyl)-15-isobutyl-16,18-dimethyl-12-[(1R)-1-methylpropyl]-19-(2-propylpentyl)-1-oxa-4,7,10,13,16-pentazacyclononadecane-2,5,8,11,14,17-hexone], 50 µM (≈ 34.2 µg/mL).
Compound `CCCCCCCCCC[C@H]1OC(=O)CNC(=O)[C@H](CO)NC(=O)[C@H](CO)NC(=O)[C@H]([C@@H](C)CC)NC(=O)[C@H](CCCC)N(C)C(=O)[C@@H]1C` [Example 31, (6S,9S,12S,15S,18R,19R)-15-butyl-19-decyl-6,9-bis(hydroxymethyl)-16,18-dimethyl-12-[(1S)-1-methylpropyl]-1-oxa-4,7,10,13,16-pentazacyclononadecane-2,5,8,11,14,17-hexone] returned an MIC of 13 µM (≈ 9.07 µg/mL).
Regarding `CCCCCC[C@H]1OC(=O)CNC(=O)[C@H]([C@H](C)O)NC(=O)[C@H](CN)NC(=O)[C@H](C2CCCCC2)NC(=O)[C@H](CC(C)C)N(C)C(=O)[C@@H]1CCc1ccc(C)cc1` [Example 97, (6S,9S,12S,15S,18R,19R)-9-(aminomethyl)-12-cyclohexyl-19-hexyl-15-isobutyl-16-methyl-18-[2-(p-tolyl)ethyl]-6-[(1S)-1-hydroxyethyl]-1-oxa-4,7,10,13,16-pentazacyclononadecane-2,5,8,11,14,17-hexone], the MIC was 3.7 µM (≈ 2.9 µg/mL).
For `CC(C)C[C@H]1C(=O)N[C@@H](C2CCCCC2)C(=O)N[C@@H](CN)C(=O)N[C@@H]([C@H](C)O)C(=O)NCC(=O)O[C@H](CC2CC3CCC2C3)[C@@H](C)C(=O)N1C` (stereo partly drawn) [Example 62, (6S,9S,12S,15S,18R,19R)-9-(Aminomethyl)-19-(((exo)-bicyclo[2.2.1]heptan-2-yl)methyl)-12-cyclohexyl-6-((S)-1-hydroxyethyl)-15-isobutyl-16,18-dimethyl-1-oxa-4,7,10,13,16-pentaazacyclononadecane-2,5,8,11,14,17-hexaone] the value was 1.6 µM (≈ 1.13 µg/mL).
